According to patent US20260001910A1, “PEPTIDES AND USES THEREOF” (PreveCeutical Medical Inc., priority 2021, published 2026):
Where two headings read alike, the source gives them in different places.

What was measured:
[1] = Description: (§1) The MTT (3-[4.5-dimethylthiazol-2-yl]-2,5=diphenyl tetrazolium bromide) assay is based on a process undertaken by living cells, involving the conversion of MTT into formazan crystals. This assay is used routinely to measure the in vitro cytotoxic effects of drugs on cell lines or primary patient cells (Van Meerloo et al., 2011).
(§2) The glioblastoma multiforme (GBM) cell lines used were U87 and U251 cells and patient derived cells grown as oncospheres (081024 cells). Human adherent GBM cell lines U87 and U251 were cultured in RPMI medium (Life Technologies Melbourne Australia) supplemented with 5% v/v FBS, 100 U/mL penicillin and 100 μg/mL streptomycin. 081024 cells were cultured in NeuroCult™ NS-A Proliferation medium with 0.2% (v/v) hepain, 20 ng/mL EGF and 10 ng/ml FGF.
(§3) 8×10^3 U87 and 7×10^3 U251 cells per well were seeded in 96 well plates in 200 μL serum-containing RPMI medium and incubated at 37° C. with 5% CO2 for 24 hours. After one wash with serum-free medium, 100 μL serum-free medium with different concentration of peptide SEQ ID NO:1 was added to each well. After 48 hours incubation, 10 μL of 0.5 mg/mL MTT was added and incubated for 2 hours at 37° C. Formazan crystals were dissolved by 200 μL/well dimethyl sulfoxide (DMSO) and shaking for 15 minutes. The UV absorbance was read with an iMark™ microplate absorbance reader at 595 nm (Bio-Rad Laboratories). Background absorbance was subtracted and results expressed as the % viability of control (untreated cells).

[2] = system: U87, U251 and 081024 cells; details: MTT, all three GBM cell lines
Description: as §1, §2, §3

[3] = remark: listed apart in the source
Description: as §1, §2, §3

[4] = system: uPA; assay: Casein-plasminogen zymography of conditioned media (uPA production); type: cell-based, human; details: for uPA production: conditioned medium, compared to no-peptide control
Description: To assess whether the peptide SEQ ID NO. 1 impacted MMP-2, MMP-9 and uPA production Zymography was used.
Zymography is a technique for studying hydrolytic enzymes on the basis of substrate degradation (Vandooren, J. et al. 2013). The in-gel zymography hydrolytic enzymes are separated by their molecular weights and detected by their ability to degrade a substrate. To detect the activity of MMP-2 and MMP-9 in various cell lines, conditioned media were collected in 3 independent experiments and analysed by gelatin zymography to quantify the level of gelatin digestion, which reflects MMP-2 and MMP-9 activity and production. Cascin-Plasminogen zymography was conducted to determine the activity level of uPA in the conditioned medium from various cell lines. Active uPA converts plasminogen into plasmin which then digests casein, thus clear bands where digestion of casein have occurred indirectly represent uPA activity.
The effect of the peptides on matrix protease production was tested using in-gel zymography. If the substrate included in the gel is gelatin, the enzymes detected are gelatinases: MMP-2 and MMP-9 (the latter is often of low abundance). If the gel contains casein and plasminogen, the enzymes tested are urokinase plasminogen activators (uPA); uPA is a therapeutic target in GBM.
An equal amount of protein from each sample was mixed with 5 μL of Laemmli buffer (0.01% Bromophenol Blue (W/V), 5% SDS (W/V), 22% glycerol (V/V), 14% 0.5 M Tris pH 6.8 (V/V)) and loaded onto a 10% polyacrylamide gel co-polymerized with 1 mg/ml of gelatin, and electrophoresed at 120V for 2 hours on ice. The gel was incubated in […] solution (Triton X-100 2.5% (V/V), 1 M Tris pH 7.5 5% (V/V), 0.5 M CaCl2) 1% (W/V) at room temperature overnight on an orbital shaker. The gel was incubated in a second solution for 3 hours at 37° C. The gel was then stained with Coomassie blue solution (Coomassie blue 0.25%, methanol 45%, acetic acid 10%) and destained in methanol 25% (V/V), acetic acid 10% (V/V) destaining solution until clear bands against the dark background appeared around 72 kDa and 95 kDa, representing MMP-2 and MMP-9 activity, respectively. Clear bands around 50 kDa appeared against the dark background representing uPA activity. The gels were scanned, and uPA, MMP-2 and MMP-9 were quantified by densitometry using NIH Image J software.
SEQ ID NO. 1 was compared to a control containing no peptide to evaluate whether the peptide can reduce the production of matrix proteinases. A reduction in the production of matrix proteinases may be anticipated to result in comparatively less degradation of the extra-cellular matrix and so this could be one pathway by which the invasion potential could be reduced.

`CC(C)C[C@@H](NC(=O)[C@@H](Cc1ccccc1)NC(=O)CNC(=O)CNC(=O)[C@H](N)Cc1ccc(O)cc1)C(=O)N[C@H](CCCNC(=N)N)C(=O)N[C@H](CCCNC(=N)N)C(N)=O` [SEQ ID NO. 1, tyr-Gly-Gly-phe-leu-arg-arg-NH2] gave a viability at 5 µM [1] of 97.9%, a viability at 50 µM [1] of 101% and a viability at 100 µM [1] of 95.9%. The “highest concentration which did not significantly affect cell viability” value [2] was 0.5 mM, the viability at 5 µM [3] was 95.8% and the viability at 50 µM [3] was 99.1%. It also gave a viability at 100 µM [3] of 93.4%, a uPA production ([4]; 081024 cells) of 97.57 ± 13.7 and a uPA production ([4]; U87 cells) of 109.1 ± 12.41. For the same compound, the uPA production ([4]; U251 cells) was 95.22 ± 12.83 and the “effect on production of uPA (in words)” value ([4]; overall, versus no-peptide control) was “did not decrease the production”.
